{
  "source": "ChEMBL document CHEMBL1131491",
  "about": "“Comparative binding energy analysis of HIV-1 protease inhibitors: incorporation of solvent effects and validation as a powerful tool in receptor-based drug design” (J Med Chem, 1998)",
  "data": [
    {"molecular_target": "Human immunodeficiency virus type 1 protease (Human immunodeficiency virus 1, UniProt Q72874)", "assay": "Inhibitory activity against HIV-1 protease.", "units": {"IC50": "nM"}, "values": [
      {"smiles": "CC(C)(C)NC(=O)[C@@H]1C[C@@H]2CCCC[C@@H]2CN1C[C@@H](O)C[C@@H](Cc1ccccc1)C(=O)N[C@H]1c2ccccc2CC1O", "note": "(some centres not stated)", "IC50": 7.59},
      {"smiles": "C[C@@H](NC(=O)[C@H](Cc1ccccc1)C[C@H](O)[C@H](Cc1ccccc1)NC(=O)OC(C)(C)C)c1ccccc1", "IC50": 145},
      {"smiles": "CC(C)(C)OC(=O)N[C@@H](Cc1ccccc1)[C@@H](O)C[C@@H](Cc1ccccc1)C(=O)N[C@H]1c2ccccc2CC[C@H]1O", "IC50": 0.692},
      {"smiles": "CC(C)(C)OC(=O)N[C@@H](Cc1ccccc1)[C@@H](O)C[C@@H](Cc1ccccc1)C(=O)N[C@H]1C=CC[C@H]1O", "IC50": 9.55},
      {"smiles": "CC(C)(C)OC(=O)N[C@@H](Cc1ccccc1)[C@@H](O)CC(=O)N[C@H]1c2ccccc2C[C@H]1O", "IC50": 562},
      {"smiles": "CC(C)(C)OC(=O)N[C@@H](Cc1ccccc1)[C@@H](O)C[C@@H](Cc1ccccc1)C(=O)N[C@H]1c2ccccc2OC[C@H]1O", "IC50": 0.178},
      {"smiles": "CC(C)(C)NC(=O)[C@@H]1C[C@@H]2CCCC[C@@H]2CN1C[C@@H](O)[C@H](Cc1ccccc1)NC(=O)OC(C)(C)C", "IC50": 3020}
    ]}
  ]
}
